Test results as given in ChEMBL document CHEMBL1151616, “Na+-K+-ATPase inhibitors from Lysimachia japonica” (J Nat Prod, 1984).

Test: Inhibition of Na+K+ATpase from pig cortex
Design: species or system Sus scrofa

Compound: C[C@@H]1O[C@@H](O[C@H]2C[C@@H](O)[C@]3(CO)[C@H]4[C@H](O)C[C@]5(C)[C@@H](C6=CC(=O)OC6)CC[C@]5(O)[C@@H]4CC[C@]3(O)C2)[C@H](O)[C@H](O)[C@H]1O [OUABAIN]
- IC50: 600 nM
